In general, IC50 refers to the concentration needed to halve the response being measured. Low values mean higher potency, high ones lower potency.

The structures appear in SMILES notation.

From article PMC13081163, “Discovery of a novel Nrf2 activator that modulates mitochondrial function in neurons by regulating DHRS3-Nrf2 interaction after ischemic stroke” (Theranostics, 2026) come the findings set out here.

The nature of series [1]: 28-day long-term toxicity in rats (intragastric). The series is classed as in vivo, rat. The settings on record: 28 days intragastric; Oma 10 mg/kg, Cpd.51 1, 3 and 10 mg/kg. On the procedure: During the long-term toxicity test, rats in each group received daily intragastric administration for 28 consecutive days. Animals in the Sham group were administered a mixture of 99% sesame oil and 1% DMSO at a volume of 0.5 mL per rat. Rats in the remaining groups were intragastrically administered varying doses of the respective therapeutic agents.
During the 28-day long-term toxicity study, rats were euthanized following the completion of continuous intragastric administration. Livers and kidneys from both male and female rats in each group were photographed for macroscopic examination, and serum samples were collected for subsequent kit-based analysis. The liver/kidney index was obtained by dividing the weight of the liver/kidney by the body weight.

For another series, the system named is SH-SY5Y cells. As to the kind of experiment: Cytotoxicity in SH-SY5Y cells, 24 h incubation. The settings on record: Homo sapiens. The series is classed as cell-based.
The next series has as its target T1, Keap1-Nrf2 (Homo sapiens, UniProt Q14145).
T1 construct: endogenous in cells; host or cells: SH-SY5Y
As to the kind of experiment: Co-IP of Keap1-Nrf2 binding in SH-SY5Y cells. The settings on record: 100 nM, physiological and OGD/R conditions. The series is classed as cell-based. The protocol:
Co-IP experiments were performed as described. After SH-SY5Y cells were treated, lysates were collected and incubated with antibodies with rotation for 12 h at 4 °C. Then, they were incubated with protein A/G magnetic beads (88804, Thermo Scientific, USA) as specification. Subsequently, the beads were collected and immune complexes were isolated. Finally, protein complexes were incubated for 5 min at 95 °C after dissolving in the electrophoresis sample buffer, and subjected to western blotting.

T1 sequence (Q14145 whole entry): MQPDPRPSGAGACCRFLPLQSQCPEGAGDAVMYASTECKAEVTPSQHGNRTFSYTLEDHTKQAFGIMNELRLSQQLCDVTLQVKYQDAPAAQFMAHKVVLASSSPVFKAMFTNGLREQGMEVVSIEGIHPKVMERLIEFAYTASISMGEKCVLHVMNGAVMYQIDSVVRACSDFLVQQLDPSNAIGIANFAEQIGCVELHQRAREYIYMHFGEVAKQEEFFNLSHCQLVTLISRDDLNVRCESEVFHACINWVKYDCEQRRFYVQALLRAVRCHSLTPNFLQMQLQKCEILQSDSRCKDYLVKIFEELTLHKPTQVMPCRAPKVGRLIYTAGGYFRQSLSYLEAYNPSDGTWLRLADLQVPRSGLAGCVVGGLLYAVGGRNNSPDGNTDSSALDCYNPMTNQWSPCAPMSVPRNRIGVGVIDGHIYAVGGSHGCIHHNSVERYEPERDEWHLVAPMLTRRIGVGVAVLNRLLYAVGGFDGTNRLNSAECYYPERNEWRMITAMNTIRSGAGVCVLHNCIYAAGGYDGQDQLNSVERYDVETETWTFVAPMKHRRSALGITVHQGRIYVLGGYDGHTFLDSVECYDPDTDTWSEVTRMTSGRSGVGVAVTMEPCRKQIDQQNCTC

For `CC1(C)CCC2(C(=O)NO)CCC3(C)C(C(=O)C=C4C5(C)C=C(C#N)C(=O)C(C)(C)C5CCC43C)C2C1` (stereo not shown) [Cpd.51], in series [1], the body weight entry was “neither compound significantly affected body weight”; the “plasma markers of hepatic and renal injury” value is “showed no such effects at any dose tested”. This compound also showed an IC50 in the series with SH-SY5Y cells of 1980 nM. At Keap1-Nrf2, the “amount of Nrf2 bound to Keap1 (Co-IP)” value is given as “reduced the amount of Nrf2 bound to Keap1”.
